# Test results as given in ChEMBL document CHEMBL1201862, “PubChem BioAssay data set” (2004).
# Active and inactive are the calls of the source.
# Experiments:
# [1] = biological target: T1, Fructose-bisphosphate aldolase (Mycobacterium tuberculosis, UniProt P9WQA3); assay: Fluorescence-based biochemical high throughput dose response assay for inhibitors of the fructose-bisphosphate aldolase (FBA) of M. tuberculosis.; assay type: functional
# T1 sequence (P9WQA3 whole entry): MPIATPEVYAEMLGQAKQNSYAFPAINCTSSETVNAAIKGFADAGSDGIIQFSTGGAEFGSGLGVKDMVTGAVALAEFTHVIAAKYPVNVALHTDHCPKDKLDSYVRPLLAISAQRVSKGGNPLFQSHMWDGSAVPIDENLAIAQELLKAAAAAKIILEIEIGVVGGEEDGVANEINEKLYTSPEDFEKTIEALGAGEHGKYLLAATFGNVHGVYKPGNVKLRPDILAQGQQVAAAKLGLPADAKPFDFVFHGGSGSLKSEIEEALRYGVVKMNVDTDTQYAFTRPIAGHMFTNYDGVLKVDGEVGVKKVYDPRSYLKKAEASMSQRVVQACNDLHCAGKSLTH
# [2] = biological target: T2, Adenosylmethionine-8-amino-7-oxononanoate aminotransferase (Mycobacterium tuberculosis, UniProt P9WQ81); assay: Mycobacterium tuberculosis BioA enzyme inhibitor Measured in Biochemical System Using Plate Reader - 2163-02_Inhibitor_Dose_CherryPick_Activity.; assay type: functional, Mycobacterium tuberculosis UT205
# T2 sequence (P9WQ81 whole entry): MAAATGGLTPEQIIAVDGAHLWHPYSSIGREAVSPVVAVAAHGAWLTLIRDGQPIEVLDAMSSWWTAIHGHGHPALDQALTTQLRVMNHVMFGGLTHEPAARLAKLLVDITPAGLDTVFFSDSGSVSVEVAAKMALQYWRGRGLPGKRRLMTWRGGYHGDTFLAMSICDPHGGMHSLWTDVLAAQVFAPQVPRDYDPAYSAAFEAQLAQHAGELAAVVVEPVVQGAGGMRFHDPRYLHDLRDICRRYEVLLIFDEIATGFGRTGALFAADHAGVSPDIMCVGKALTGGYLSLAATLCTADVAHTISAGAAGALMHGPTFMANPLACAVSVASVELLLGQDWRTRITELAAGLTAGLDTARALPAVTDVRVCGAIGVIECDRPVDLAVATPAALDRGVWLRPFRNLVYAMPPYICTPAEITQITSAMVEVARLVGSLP
# [3] = biological target: T3, Corticotropin-releasing factor receptor 2/Corticotropin-releasing factor-binding protein (Homo sapiens, UniProt P24387+Q13324); assay: Dose Response confirmation of uHTS hits for small molecule antagonists of the CRF-binding protein and CRF-R2 receptor complex.; assay type: functional; details: read-out: IC50_Mean
# T3 sequence (Q13324 whole entry): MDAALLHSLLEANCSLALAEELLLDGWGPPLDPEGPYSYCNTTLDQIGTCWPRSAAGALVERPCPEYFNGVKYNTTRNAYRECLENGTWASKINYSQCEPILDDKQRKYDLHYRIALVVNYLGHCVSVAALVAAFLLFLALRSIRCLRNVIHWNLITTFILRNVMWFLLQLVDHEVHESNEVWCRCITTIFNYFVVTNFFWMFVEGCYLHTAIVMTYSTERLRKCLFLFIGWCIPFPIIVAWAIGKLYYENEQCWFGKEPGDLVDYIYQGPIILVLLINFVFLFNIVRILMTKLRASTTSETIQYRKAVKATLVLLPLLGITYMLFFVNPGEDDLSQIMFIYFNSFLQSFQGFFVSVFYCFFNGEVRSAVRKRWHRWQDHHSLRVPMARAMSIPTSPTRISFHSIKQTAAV
# T3 sequence (P24387 whole entry): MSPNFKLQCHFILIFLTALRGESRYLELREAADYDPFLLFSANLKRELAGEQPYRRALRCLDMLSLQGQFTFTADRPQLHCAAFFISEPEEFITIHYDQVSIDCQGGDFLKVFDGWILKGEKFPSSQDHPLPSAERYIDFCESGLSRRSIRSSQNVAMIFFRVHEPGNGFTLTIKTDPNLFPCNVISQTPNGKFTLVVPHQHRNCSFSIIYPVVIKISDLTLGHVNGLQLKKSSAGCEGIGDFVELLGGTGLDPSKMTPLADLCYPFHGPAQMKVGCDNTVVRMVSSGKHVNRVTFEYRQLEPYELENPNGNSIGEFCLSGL
# [4] = biological target: T3, Corticotropin-releasing factor receptor 2/Corticotropin-releasing factor-binding protein; assay: activators of CRF receptor 2 with binding protein – uHTS hits, confirmation (AID 602473); assay type: functional; details: read-out: EC50_Mean
# [5] = biological target: T4, Methionyl-tRNA synthetase, putative (Trypanosoma brucei brucei, UniProt Q38C91); assay type: functional, Trypanosoma brucei brucei strain 927/4 GUTat10.1
# T4 sequence (Q38C91 whole entry): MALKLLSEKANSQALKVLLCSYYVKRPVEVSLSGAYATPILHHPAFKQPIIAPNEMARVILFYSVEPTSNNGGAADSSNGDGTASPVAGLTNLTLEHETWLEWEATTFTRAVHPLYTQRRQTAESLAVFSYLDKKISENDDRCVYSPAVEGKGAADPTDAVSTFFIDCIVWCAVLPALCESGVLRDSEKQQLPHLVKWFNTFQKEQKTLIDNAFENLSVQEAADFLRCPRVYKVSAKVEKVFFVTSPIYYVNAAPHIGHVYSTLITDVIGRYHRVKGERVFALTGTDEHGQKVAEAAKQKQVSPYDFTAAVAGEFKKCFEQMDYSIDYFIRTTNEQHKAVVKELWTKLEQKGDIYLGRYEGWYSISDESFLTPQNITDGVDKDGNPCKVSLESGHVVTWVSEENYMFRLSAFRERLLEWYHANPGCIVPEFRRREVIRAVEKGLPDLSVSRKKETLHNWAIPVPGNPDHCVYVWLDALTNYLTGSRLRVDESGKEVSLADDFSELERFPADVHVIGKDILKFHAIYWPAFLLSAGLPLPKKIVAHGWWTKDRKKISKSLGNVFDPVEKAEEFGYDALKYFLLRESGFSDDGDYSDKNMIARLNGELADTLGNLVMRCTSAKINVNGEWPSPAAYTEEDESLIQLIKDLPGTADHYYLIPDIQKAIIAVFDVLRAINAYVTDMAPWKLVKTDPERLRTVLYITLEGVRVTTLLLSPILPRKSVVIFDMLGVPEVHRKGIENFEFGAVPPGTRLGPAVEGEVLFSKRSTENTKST
# [6] = Counterscreen for inhibitors of Trypanosoma brucei methionyl tRNA synthetase (MetRS): Luminescence-based cell-based high throughput dose response assay to identify compounds that are cytotoxic to Jurkat human T lymphocyte cells.; assay type: functional
# [7] = biological target: T4, Methionyl-tRNA synthetase, putative; assay type: functional, Trypanosoma brucei brucei strain 927/4 GUTat10.1; remark: listed apart in the source
# Fatty acid synthase [8] = biological target: T5, Fatty acid synthase (Homo sapiens, UniProt P49327); assay: inhibition of human FAS-TE enzyme activity – biochemical, endpoint fluorescence intensity, uHTS hits, dose response (AID 624327); assay type: functional;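 also: fluorescence from hydrolysis of an O-methyl fluorescein acyl ester substrate by the enzyme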
# Fatty acid synthase [9] = biological target: T5, Fatty acid synthase; assay: inhibition of human FAS-TE enzyme activity – biochemical, kinetic fluorescence intensity, dose response (AID 624326); assay type: functional;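 also: rate of fluorescence rise from hydrolysis of a fluorogenic O-methyl fluorescein ester substrate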
# cells = assay type: functional, cell-based
# [10] = biological target: T6, Nuclear receptor subfamily 0 group B member 1 (Homo sapiens, UniProt P51843); assay type: functional, cell-based;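 also: HEK293T cells transfected with SF-1 and DAX-1 plus StAR promoter luciferase reporter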
# T6 sequence (P51843 whole entry): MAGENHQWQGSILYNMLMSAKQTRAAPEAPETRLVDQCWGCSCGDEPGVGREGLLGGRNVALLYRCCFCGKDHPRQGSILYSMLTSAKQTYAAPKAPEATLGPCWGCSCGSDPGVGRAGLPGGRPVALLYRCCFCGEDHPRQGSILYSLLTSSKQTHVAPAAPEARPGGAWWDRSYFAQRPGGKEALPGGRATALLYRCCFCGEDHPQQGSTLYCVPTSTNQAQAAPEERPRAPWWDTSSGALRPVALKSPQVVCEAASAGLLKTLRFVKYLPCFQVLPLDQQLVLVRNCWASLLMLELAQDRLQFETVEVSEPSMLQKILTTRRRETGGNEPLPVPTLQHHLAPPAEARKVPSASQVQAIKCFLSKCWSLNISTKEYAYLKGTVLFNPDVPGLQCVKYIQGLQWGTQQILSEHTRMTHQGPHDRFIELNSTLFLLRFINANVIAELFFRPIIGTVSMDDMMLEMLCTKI
# [11] = luciferase reporter signal suppression in cells – H4 neuroglioma cells, luminescence, dose response (AID 1990); assay type: functional, cell-based
# [12] = Luminescence Cell-Based Dose Response HTS to Identify Inhibitors of 5'UTR Stem-Loop Driven Prion Protein mRNA Translation in H4 Neuroglioblastoma Cells. [Related pubchem assays: 1827 (Project Summary), 1813 (Primary HTS)]; assay type: functional
# [13] = alpha-synuclein stem-loop luciferase translation blockers – H4 neuroglioma cells, luminescence, confirmation (AID 1988); assay type: functional, cell-based
# [14] = reduction of Shn3 3'UTR-driven luciferase in osteoblasts – cell-based, Clone20 osteoblasts, firefly luciferase, cherry-picked, dose response (AID 624132); assay type: functional;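 also: firefly luciferase luminescence from reporter carrying the Shn3 3'UTR in osteoblasts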
# [15] = loss of viability in HepG2 cells – cell-based, CellTiter-Glo, cherry-picked, cytotoxicity control for Shn3 inhibitor project, dose response (AID 624134); assay type: functional
# [16] = non-specific 3'UTR reporter inhibition in Clone20-Shn3RL – cell-based, Renilla luciferase, cherry-picked, counter-screen for Shn3 inhibitor project, dose response (AID 624133); assay type: functional
# [17] = Fluorescence-based cell-based high throughput dose response assay for inhibitors of the interaction of nucleotide-binding oligomerization domain containing 2 (NOD2) and the receptor-interacting serine-threonine kinase 2 (RIPK2).; assay type: functional; details: Homo sapiens
# [18] = biological target: SWI/SNF-related matrix-associated actin-dependent regulator of chromatin subfamily A member 2 (Homo sapiens, UniProt P51531); assay: Luminescence-based cell-based high throughput dose response assay to identify activators of the function of SWI/SNF related, matrix associated, actin dependent regulator of chromatin, subfamily a, member 2 (SMARCA2, BRM).; assay type: functional
# [19] = Counterscreen for activators of the function of SWI/SNF related, matrix associated, actin dependent regulator of chromatin, subfamily a, member 2 (SMARCA2, BRM): Luminescence-based cell-based high throughput dose response assay to identify non-selective compounds using the VP16 reporter assay.; assay type: functional
# [20] = biological target: T7, DNA repair protein RAD52 homolog (Homo sapiens, UniProt P43351); assay type: functional, biochemical
# T7 sequence (P43351 whole entry): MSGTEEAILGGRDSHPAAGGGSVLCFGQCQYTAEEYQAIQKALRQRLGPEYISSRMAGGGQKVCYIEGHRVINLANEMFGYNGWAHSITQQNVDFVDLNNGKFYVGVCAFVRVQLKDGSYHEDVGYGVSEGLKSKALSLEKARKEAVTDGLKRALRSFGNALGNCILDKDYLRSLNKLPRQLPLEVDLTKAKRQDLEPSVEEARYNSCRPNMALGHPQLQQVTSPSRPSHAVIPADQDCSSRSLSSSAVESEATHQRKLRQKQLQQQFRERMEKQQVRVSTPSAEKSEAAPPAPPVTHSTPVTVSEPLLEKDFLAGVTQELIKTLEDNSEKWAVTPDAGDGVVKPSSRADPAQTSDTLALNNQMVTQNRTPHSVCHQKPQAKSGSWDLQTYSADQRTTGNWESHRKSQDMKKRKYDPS
# T5 sequence (P49327 whole entry): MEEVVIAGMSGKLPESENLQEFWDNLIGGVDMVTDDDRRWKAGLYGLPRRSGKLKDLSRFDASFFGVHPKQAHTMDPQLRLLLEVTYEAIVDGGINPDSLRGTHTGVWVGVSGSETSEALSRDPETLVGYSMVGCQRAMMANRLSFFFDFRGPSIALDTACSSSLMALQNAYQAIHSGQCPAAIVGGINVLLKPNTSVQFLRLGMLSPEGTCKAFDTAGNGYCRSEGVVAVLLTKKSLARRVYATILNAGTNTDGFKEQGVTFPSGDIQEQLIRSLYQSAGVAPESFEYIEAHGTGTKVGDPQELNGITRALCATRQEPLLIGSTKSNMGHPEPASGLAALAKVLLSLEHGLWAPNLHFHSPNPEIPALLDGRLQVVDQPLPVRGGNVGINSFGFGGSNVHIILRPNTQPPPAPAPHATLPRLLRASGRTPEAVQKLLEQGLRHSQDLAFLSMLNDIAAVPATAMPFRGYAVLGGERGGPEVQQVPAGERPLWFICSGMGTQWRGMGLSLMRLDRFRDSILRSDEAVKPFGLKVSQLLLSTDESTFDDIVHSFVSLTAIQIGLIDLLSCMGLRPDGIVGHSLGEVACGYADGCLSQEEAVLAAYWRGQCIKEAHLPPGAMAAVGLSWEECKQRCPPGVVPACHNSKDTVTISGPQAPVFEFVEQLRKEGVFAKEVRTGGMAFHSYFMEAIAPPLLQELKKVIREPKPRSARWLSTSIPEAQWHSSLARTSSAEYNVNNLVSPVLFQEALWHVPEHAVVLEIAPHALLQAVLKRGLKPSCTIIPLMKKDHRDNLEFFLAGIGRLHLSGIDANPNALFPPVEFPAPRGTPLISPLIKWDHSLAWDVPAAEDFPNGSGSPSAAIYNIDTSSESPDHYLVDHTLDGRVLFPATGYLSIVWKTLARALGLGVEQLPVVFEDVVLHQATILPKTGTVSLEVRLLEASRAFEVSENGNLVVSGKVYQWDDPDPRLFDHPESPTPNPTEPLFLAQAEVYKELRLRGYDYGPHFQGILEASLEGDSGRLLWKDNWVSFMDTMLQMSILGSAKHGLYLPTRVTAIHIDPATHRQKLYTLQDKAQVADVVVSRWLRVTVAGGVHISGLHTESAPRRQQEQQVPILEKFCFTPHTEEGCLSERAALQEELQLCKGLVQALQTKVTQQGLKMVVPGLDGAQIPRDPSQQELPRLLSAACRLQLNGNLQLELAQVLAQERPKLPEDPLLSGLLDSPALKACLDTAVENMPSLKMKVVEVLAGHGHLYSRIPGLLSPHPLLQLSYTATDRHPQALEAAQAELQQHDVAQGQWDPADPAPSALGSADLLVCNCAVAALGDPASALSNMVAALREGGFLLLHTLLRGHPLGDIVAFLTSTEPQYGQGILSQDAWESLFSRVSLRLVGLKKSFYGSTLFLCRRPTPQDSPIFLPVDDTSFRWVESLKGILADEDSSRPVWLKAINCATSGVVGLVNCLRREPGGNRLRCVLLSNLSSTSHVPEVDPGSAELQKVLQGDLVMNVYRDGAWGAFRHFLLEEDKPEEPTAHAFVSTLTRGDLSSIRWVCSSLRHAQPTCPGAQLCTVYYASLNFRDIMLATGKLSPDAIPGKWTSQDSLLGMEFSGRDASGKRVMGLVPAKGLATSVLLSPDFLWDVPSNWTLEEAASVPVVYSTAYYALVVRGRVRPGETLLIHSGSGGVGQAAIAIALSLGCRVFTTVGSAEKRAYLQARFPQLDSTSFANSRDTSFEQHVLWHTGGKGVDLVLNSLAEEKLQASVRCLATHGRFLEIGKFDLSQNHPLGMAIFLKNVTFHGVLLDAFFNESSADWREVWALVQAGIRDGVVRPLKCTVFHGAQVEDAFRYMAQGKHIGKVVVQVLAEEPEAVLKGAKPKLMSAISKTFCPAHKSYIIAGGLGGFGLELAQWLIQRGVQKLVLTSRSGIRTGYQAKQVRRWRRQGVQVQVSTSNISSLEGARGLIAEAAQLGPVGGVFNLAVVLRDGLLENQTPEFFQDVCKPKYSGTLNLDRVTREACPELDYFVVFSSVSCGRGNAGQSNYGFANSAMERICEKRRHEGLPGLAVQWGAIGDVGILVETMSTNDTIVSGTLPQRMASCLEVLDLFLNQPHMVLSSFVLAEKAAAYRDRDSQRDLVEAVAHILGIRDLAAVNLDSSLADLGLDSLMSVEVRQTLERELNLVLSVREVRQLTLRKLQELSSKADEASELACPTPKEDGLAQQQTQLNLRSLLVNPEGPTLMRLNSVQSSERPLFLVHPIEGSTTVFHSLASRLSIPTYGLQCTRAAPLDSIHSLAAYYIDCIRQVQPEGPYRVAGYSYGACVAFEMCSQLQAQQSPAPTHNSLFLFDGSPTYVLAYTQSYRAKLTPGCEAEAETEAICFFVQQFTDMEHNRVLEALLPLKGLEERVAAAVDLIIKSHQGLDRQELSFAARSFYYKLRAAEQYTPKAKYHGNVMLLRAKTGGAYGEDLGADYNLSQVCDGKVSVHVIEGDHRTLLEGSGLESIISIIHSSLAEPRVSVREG
# Chain of SWI/SNF-related matrix-associated actin-dependent regulator of chromatin subfamily A member 2 (P51531 whole entry): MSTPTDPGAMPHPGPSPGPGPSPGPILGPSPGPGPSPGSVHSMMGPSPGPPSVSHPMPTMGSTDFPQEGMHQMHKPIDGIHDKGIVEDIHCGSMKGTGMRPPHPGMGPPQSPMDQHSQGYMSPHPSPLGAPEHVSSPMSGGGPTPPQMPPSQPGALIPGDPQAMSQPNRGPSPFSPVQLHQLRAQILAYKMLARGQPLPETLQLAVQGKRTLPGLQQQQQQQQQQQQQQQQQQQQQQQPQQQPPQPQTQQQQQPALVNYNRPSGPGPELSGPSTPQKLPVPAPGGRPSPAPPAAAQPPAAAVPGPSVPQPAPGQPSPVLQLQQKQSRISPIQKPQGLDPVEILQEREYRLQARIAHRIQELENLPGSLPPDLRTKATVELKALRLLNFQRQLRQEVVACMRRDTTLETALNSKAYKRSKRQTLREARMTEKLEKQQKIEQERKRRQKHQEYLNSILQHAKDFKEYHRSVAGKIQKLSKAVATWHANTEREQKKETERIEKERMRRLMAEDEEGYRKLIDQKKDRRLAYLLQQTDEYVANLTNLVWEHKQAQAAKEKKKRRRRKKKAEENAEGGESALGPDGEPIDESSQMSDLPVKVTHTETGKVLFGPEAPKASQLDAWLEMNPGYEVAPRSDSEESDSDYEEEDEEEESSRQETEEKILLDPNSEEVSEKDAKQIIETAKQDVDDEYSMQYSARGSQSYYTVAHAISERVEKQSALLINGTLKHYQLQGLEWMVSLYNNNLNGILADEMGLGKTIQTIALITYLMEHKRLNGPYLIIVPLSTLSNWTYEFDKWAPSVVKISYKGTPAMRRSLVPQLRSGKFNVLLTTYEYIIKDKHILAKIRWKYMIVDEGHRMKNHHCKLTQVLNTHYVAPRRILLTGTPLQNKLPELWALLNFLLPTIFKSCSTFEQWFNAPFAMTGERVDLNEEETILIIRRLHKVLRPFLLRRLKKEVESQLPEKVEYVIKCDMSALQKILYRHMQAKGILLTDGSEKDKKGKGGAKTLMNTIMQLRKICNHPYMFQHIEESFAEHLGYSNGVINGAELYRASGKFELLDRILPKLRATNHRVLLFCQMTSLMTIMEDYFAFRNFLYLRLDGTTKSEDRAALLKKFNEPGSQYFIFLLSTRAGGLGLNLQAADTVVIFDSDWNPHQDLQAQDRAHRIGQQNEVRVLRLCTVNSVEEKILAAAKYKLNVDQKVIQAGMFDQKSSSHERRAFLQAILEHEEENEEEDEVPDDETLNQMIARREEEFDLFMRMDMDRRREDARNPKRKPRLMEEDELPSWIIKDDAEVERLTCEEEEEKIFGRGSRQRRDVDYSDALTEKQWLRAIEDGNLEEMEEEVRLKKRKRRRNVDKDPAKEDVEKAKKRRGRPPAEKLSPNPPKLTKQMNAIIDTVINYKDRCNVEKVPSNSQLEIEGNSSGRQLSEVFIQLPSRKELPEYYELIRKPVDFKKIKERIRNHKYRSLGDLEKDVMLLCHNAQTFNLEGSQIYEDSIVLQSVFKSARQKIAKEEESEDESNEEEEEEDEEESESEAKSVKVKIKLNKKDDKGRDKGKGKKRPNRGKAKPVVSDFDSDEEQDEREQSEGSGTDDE
smiles,measurement,setting,value
Cc1ccccc1NC(=O)Cn1c(C)nc2ccc(N)cc2c1=O,IC50,[1],> 1.11 µM (active)
O=C(Nc1ccc(NS(=O)(=O)c2ccccc2)cc1)c1cccnc1,AC50,[2],5.75 µM (active)
O=C(C/C=N\OCc1ccc([N+](=O)[O-])cc1)Nc1ccc(Br)cc1,IC50,[3],> 47.1 µM (inactive)
same,EC50,[4],> 53 µM (inactive)
same,IC50,[5],1.25 µM (active)
same,IC50,[6],83.3 µM (inactive)
same,IC50,[7],0.784 µM (active)
same,IC50,Fatty acid synthase [8],10.1 µM (active)
same,IC50,Fatty acid synthase [9],7.6 µM (active)
Cc1cccnc1NC(=O)COc1ccc2c(c1)CCC2,IC50,cells,> 67.6 µM (inactive)
same,IC50,[10],> 67.6 µM (inactive)
N#C/C(=N\Nc1cc(Cl)cc(Cl)c1)c1nnc2n1CCCCC2,IC50,[5],27.4 µM (inactive)
same,IC50,[6],83.3 µM (inactive)
same,IC50,[7],16.6 µM (inactive)
Oc1ccccc1/C=N/c1cccc2ccccc12,IC50,[1],> 3.33 µM (active)
COCCn1c(C)cc(C(=O)COC(=O)c2ccc(Cl)c(S(N)(=O)=O)c2)c1C,IC50,cells,> 67.5 µM (inactive)
same,IC50,[10],> 67.5 µM (inactive)
CCOC(=O)C1CCN(C(=O)Nc2ccc3snnc3c2)CC1,AC50,[2],0.85 µM (active)
COc1ccc(OC)c2sc(N(CCN(C)C)C(=O)/C=C/c3cccs3)nc12,EC50,[11],8.13 µM (active)
same,EC50,[12],3.18 µM (active)
same,EC50,[13],6.88 µM (active)
same,AC50,[14],12.8 µM (active)
same,AC50,[15],19.1 µM (active)
same,AC50,[16],25.8 µM (active)
same,IC50,[17],13.3 µM (inactive)
same,EC50,[18],> 91.1 µM (inactive)
same,EC50,[19],> 91.1 µM (inactive)
same,AC50,[20],10.6 µM (active)
O=C1CCCc2c1cc(C(=O)NCCCN1CCOCC1)c(=O)n2-c1ccc(Cl)cc1,AC50,[2],10.1 µM (active)
COc1ccc(C(=O)Nc2cccc(OC)c2)cc1,IC50,cells,> 67.6 µM (inactive)
same,IC50,[10],> 67.6 µM (inactive)
N#Cc1c(-c2ccc(Br)cc2)cc(-c2cccnc2)nc1N,IC50,[1],1.2 µM (active)
